What was measured:
Type in all cases: cell-based
[1] = test system: Escherichia Coli (EC) CIP 53.126; test: ASTM E2149 shake flask method, antibacterial log reduction, E. coli; conditions: log(T0/T1h), 1 hour
Method: (§1) The antibacterial efficacy was tested following the below Shake Flask protocol:
(§2) • Microbial strains: Staphylococcus aureus (SA) CIP 4.83, Escherichia Coli (EC) CIP 53.126, Pseudomonas Aeruginosa (PA) CIP 82.113 • Culture media: TSA medium-Neutralizing medium (Dey Engley Broth)-Buffered Peptoned water (BPW-F)-Shake flask bottles-Physiological water • Incubator Shake Flask Protocol: ASTM E2149 Shake Flask Method • Inoculum counting: • For each strain, prepare an inoculum at 0.5 Mc Farland (McF). Dilute 1 ml of the inoculum with 9 ml of physiological water. Select 1 ml of the resulting dilution and dilute again with 9 ml of physiological water. Execute 5 dilution steps accordingly so that a 10^−5 dilution is obtained. • Recover 100 microliter of the 10^−5 dilution and inoculate 2 petri dishes. • Add 20 ml of TSA medium. • Incubate at 32+/−0.5° C. during 24 hours • Negative control: • Put 5 ml of SA, EC or PA inoculums into a shake flask. Add 45 ml of pure BPW-F solution. • Dilute twice in neutralizing medium: Recover 1 ml of the pure solution and add 9 ml of the neutralizing medium (=10^−1 and 10^−2 dilution). • Wait 5 minutes and put 100 microliter of the pure solution and the 10^−2 dilution into 2 petri dishes, add 20 ml of TSA medium (T0). • Do the same operation after 1 hour (T1h). • Incubate at 32+/−0.5° C. during 24 hours • Sample testing: • Prepare a solution at a specified concentration (see data tables for actual concentrations as 100% active—final volume 50 ml). For example, for a 50% (V/V), dilute 25 ml of product with 20 ml of BPW-F and 5 ml of the inoculums (SA, EC or PA) at 0.5 McF. • Dilute twice in neutralizing medium: Recover 1 ml of the pure solution and add 9 ml of the neutralizing medium (=10^−1 and 10^−2 dilution). • Wait 5 minutes and put 100 microliter of the pure solution and the 10^−2 dilution into 2 petri dishes, add 20 ml of TSA medium (T0). • Do the same operation after 1 hour (T1h). • Incubate at 32+/−0.5° C. during 24 hours • Calculation of log reduction: • The log reduction is calculated as log(T0/T1h)

[2] = test system: Staphylococcus aureus (SA) CIP 4.83; test: ASTM E2149 shake flask method, antibacterial log reduction, St. aureus; conditions: log(T0/T1h), 1 hour
Method: as §1, §2

[3] = test system: Pseudomonas Aeruginosa (PA) CIP 82.113; test: ASTM E2149 shake flask method, antibacterial log reduction, Ps. aeruginosa; conditions: Ps Aeroginosa; tested active concentration 10%; log(T0/T1h), 1 hour
Method: as §1, §2

[4] = tested active concentration 0.1%
[5] = St. Aureus, tested active concentration 0.1%

Row | Molecule | Log reduction (tested active concentration) [1, 4] | Log reduction (tested active concentration) [2, 5] | Log reduction (tested active concentration) [3] | Log reduction (tested active concentration) ([1]; tested active concentration 1%) | Log reduction (tested active concentration) ([2]; St Aureus, tested active concentration 1%)
1 | O=C([O-])[O-].[Zn+2] [Zn2+, zinc carbonate] | 0.17 (0.1%) | 0.18 (0.1%) | 0.27 (10%) |  | 
2 | methyl branched dimethyl amine oxide [Shell type 1 Branched AO ( N terminal)] |  | 4.06 (0.1%) | 3.98 (10%) |  | 
3 | linear C12-14 alkyl dimethyl amine oxide [Linear AO] | 0.41 (0.1%) | 0.73 (0.1%) | 2.10 (10%) |  | 
4 | CCCCCCCCCCCC(=O)NCCC[N+](C)(C)[O-] [CAP AO, cocoamidopropyl dimethyl amine oxide] |  |  | 1.3 (10%) | 0.37 (1%) | 0.88 (1%)

Source: patent US8470755B1, “Liquid cleaning and disinfecting compositions comprising a zinc inorganic salt” (The Procter & Gamble Company, priority 2012, dated 2013)
